Source: patent US7910569B2, “Microbicidal compositions and their use” (BASF Aktiengesellschaft, priority 2003, dated 2011)

What was measured:
Type in all cases: cell-based
[1] = system: algae; assay: Surface protection, algal resistance of coating (BBA MOAT 33); settings: after leaching with running water for 72 hours
Procedure: (§1) Testing was performed according to the BS3900 G6 and BBA MOAT 33 methods for evaluation versus fungi and algae, respectively. The methods involve painting a substrate panel with the coating and leaching under running water for 72 hours. The substrates are incubated for 56 days after being inoculated with fungi or algae. Performance is judged by comparing with suitable control samples i.e without biocide, a positive control and for fungi with substrate panels that have not been leached.
(§2) Performance rating of painted test substrates is as follows and a score of 0, 1 and 2 is considered as a pass • 0=no growth • 1=trace of growth • 2=growth on 1-10% of test face • 3=growth on 10-30% of test face • 4=growth on 30-70% of test face • 5=growth on 70-100% of test face. Surface Protection using CuHDO

[2] = system: Bacterial Challenges; assay: In can preservation challenge test (IBRG draft method), bacterial challenges; settings: 1000 ppm, acrylic ester and acrylonitrile polymer dispersion
Procedure: (§3) Tests were performed according to the IBRG draft method (5.2, June 2001). This briefly entails the substrate being dosed with the biocide and allowed to equilibrate. Samples are inoculated once per week for 4 weeks and checked for recovery of organisms at 1, 3 and 7 days after inoculation.
(§4) Results to show efficacy in a polymer based on an acrylic ester and acrylonitrile polymer dispersion using: • 1000 ppm CuHDO • 1000 ppm in-situ generated CuHDO (by blending within the matrix or medium, 315 ppm of basic copper carbonate containing 57.5% copper content with 3492 ppm of a 30% water soluble solution of potassium salt of N′-hydroxy-N-cyclohexyldiazenium oxide (KHDO))
(§5) Using the following performance rating: • P=Pass (0-100 colonies) • F=Fail (101->1000 colonies)

[3] = system: Fungal Challenges; assay: In can preservation challenge test (IBRG draft method), fungal challenges; settings: 1000 ppm, acrylic ester and acrylonitrile polymer dispersion
Procedure: as §3, §4, §5

[4] = system: fungi; assay: Surface protection, fungal resistance of coating (BS3900 G6); design: key: 0=no growth; 1=trace of growth; 2=growth on 1-10% of test face; 3=growth on 10-30% of test face; 4=growth on 30-70% of test face; 5=growth on 70-100% of test face
Procedure: as §1, with “The substrates are incubated for 56 days after being inoculated with fungi or algae.” left out
as §2

[5] = system: Bacterial and Fungal Challenges; assay: In can preservation challenge test (IBRG draft method), overall efficacy; settings: 1000 ppm, acrylic ester and acrylonitrile polymer dispersion
Procedure: as §3, §4, §5

[6] = 0.15% by weight, after leaching with running water for 72 hours
[7] = 0.15% by weight, coating as applied
[8] = 0.2% by weight, after leaching with running water for 72 hours
[9] = 0.2% by weight, coating as applied
[10] = 1.5% by weight, after leaching with running water for 72 hours
[11] = 1.5% by weight, coating as applied
[12] = 0.5% by weight, after leaching with running water for 72 hours
[13] = 0.5% by weight, coating as applied

CCNc1nc(NC(C)(C)C)nc(SC)n1 [Terbutryn, reference compound]
ALGAL GROWTH ASSESSMENT 28 days ([1]; 0.5% by weight): 0.0 | ALGAL GROWTH ASSESSMENT 56 days ([1]; 0.5% by weight): 0.0

[Cu+2].[O-]/N=[N+](\[O-])C1CCCCC1.[O-]/N=[N+](\[O-])C1CCCCC1 [CuHDO, copper salt of N′-hydroxy-N-cyclohexyl-diazenium oxide]
ALGAL GROWTH ASSESSMENT 28 days ([1]; 0.15% by weight): 2/2 | ALGAL GROWTH ASSESSMENT 42 days ([1]; 0.15% by weight): 1/1 | ALGAL GROWTH ASSESSMENT 56 days ([1]; 0.15% by weight): 0/1 | ALGAL GROWTH ASSESSMENT 28 days ([1]; 0.2% by weight): 0.1 | ALGAL GROWTH ASSESSMENT 56 days ([1]; 0.2% by weight): 1.2 | ALGAL GROWTH ASSESSMENT 28 days ([1]; 1.5% by weight): 0/0 | ALGAL GROWTH ASSESSMENT 42 days ([1]; 1.5% by weight): 0/0 | ALGAL GROWTH ASSESSMENT 56 days ([1]; 1.5% by weight): 0/0 | Bacterial Challenges ([2]; pH 5): P (P=Pass (0-100 colonies)) | Bacterial Challenges ([2]; pH 7): P (P=Pass (0-100 colonies)) | Bacterial Challenges ([2]; pH 9): P (P=Pass (0-100 colonies)) | Fungal Challenges ([3]; pH 5): F^2 (F=Fail (101->1000 colonies)) | Fungal Challenges ([3]; pH 7): P (P=Pass (0-100 colonies)) | Fungal Challenges ([3]; pH 9): P (P=Pass (0-100 colonies)) | FUNGAL GROWTH ASSESSMENT Plaster Substrate 28 days [4, 6]: 1 | FUNGAL GROWTH ASSESSMENT Plaster Substrate 42 days [4, 6]: 1 | FUNGAL GROWTH ASSESSMENT Plaster Substrate 56 days [4, 6]: 2 (2=growth on 1-10% of test face) | FUNGAL GROWTH ASSESSMENT Wood Substrate 28 days [4, 6]: 1 | FUNGAL GROWTH ASSESSMENT Wood Substrate 42 days [4, 6]: 1 | FUNGAL GROWTH ASSESSMENT Wood Substrate 56 days [4, 6]: 2 (2=growth on 1-10% of test face) | FUNGAL GROWTH ASSESSMENT Plaster Substrate 28 days [4, 7]: 1 | FUNGAL GROWTH ASSESSMENT Plaster Substrate 42 days [4, 7]: 1 | FUNGAL GROWTH ASSESSMENT Plaster Substrate 56 days [4, 7]: 1 | FUNGAL GROWTH ASSESSMENT Wood Substrate 28 days [4, 7]: 1 | FUNGAL GROWTH ASSESSMENT Wood Substrate 42 days [4, 7]: 1 | FUNGAL GROWTH ASSESSMENT Wood Substrate 56 days [4, 7]: 1 | FUNGAL GROWTH ASSESSMENT Plaster Substrate 28 days [4, 8]: 2 (2=growth on 1-10% of test face) | FUNGAL GROWTH ASSESSMENT Plaster Substrate 56 days [4, 8]: 3 (3=growth on 10-30% of test face) | FUNGAL GROWTH ASSESSMENT Wood Substrate 28 days [4, 8]: 2 (2=growth on 1-10% of test face) | FUNGAL GROWTH ASSESSMENT Wood Substrate 56 days [4, 8]: 3 (3=growth on 10-30% of test face) | FUNGAL GROWTH ASSESSMENT Plaster Substrate 28 days [4, 9]: 1 | FUNGAL GROWTH ASSESSMENT Plaster Substrate 56 days [4, 9]: 1 | FUNGAL GROWTH ASSESSMENT Wood Substrate 28 days [4, 9]: 1 | FUNGAL GROWTH ASSESSMENT Wood Substrate 56 days [4, 9]: 1 | FUNGAL GROWTH ASSESSMENT Plaster Substrate 28 days [4, 10]: 1 | FUNGAL GROWTH ASSESSMENT Plaster Substrate 42 days [4, 10]: 1 | FUNGAL GROWTH ASSESSMENT Plaster Substrate 56 days [4, 10]: 1 | FUNGAL GROWTH ASSESSMENT Wood Substrate 28 days [4, 10]: 1 | FUNGAL GROWTH ASSESSMENT Wood Substrate 42 days [4, 10]: 1 | FUNGAL GROWTH ASSESSMENT Wood Substrate 56 days [4, 10]: 1 | FUNGAL GROWTH ASSESSMENT Plaster Substrate 28 days [4, 11]: 1 | FUNGAL GROWTH ASSESSMENT Plaster Substrate 42 days [4, 11]: 1 | FUNGAL GROWTH ASSESSMENT Plaster Substrate 56 days [4, 11]: 1 | FUNGAL GROWTH ASSESSMENT Wood Substrate 28 days [4, 11]: 1 | FUNGAL GROWTH ASSESSMENT Wood Substrate 42 days [4, 11]: 1 | FUNGAL GROWTH ASSESSMENT Wood Substrate 56 days [4, 11]: 1 | Overall Efficacy ([5]; pH 5): F^2 (F=Fail (101->1000 colonies)) | Overall Efficacy ([5]; pH 7): P (P=Pass (0-100 colonies)) | Overall Efficacy ([5]; pH 9): P (P=Pass (0-100 colonies))

CCCCNC(=O)OCC#CI [IPBC, reference compound]
FUNGAL GROWTH ASSESSMENT Plaster Substrate 28 days [4, 12]: 1 | FUNGAL GROWTH ASSESSMENT Plaster Substrate 56 days [4, 12]: 1 | FUNGAL GROWTH ASSESSMENT Wood Substrate 28 days [4, 12]: 1 | FUNGAL GROWTH ASSESSMENT Wood Substrate 56 days [4, 12]: 1 | FUNGAL GROWTH ASSESSMENT Plaster Substrate 28 days [4, 13]: 1 | FUNGAL GROWTH ASSESSMENT Plaster Substrate 56 days [4, 13]: 1 | FUNGAL GROWTH ASSESSMENT Wood Substrate 28 days [4, 13]: 1 | FUNGAL GROWTH ASSESSMENT Wood Substrate 56 days [4, 13]: 1
